Several values for one entry are separate records, joined by “and”; a condition that tells them apart may be missing. Equal entries are not always repeated. Entries after “also recorded” stand apart in the source; their conditions may differ. Values belong to the compound of their own block, whether it stands above or below them.
Columns and labels:
HeLa cells = assay: Cell permeability: fluorescence imaging and live cell confocal imaging; assay type: cell-based; conditions: for co-localization with LysoTracker: live-cell confocal imaging, IQ 56 green, IQ 57 blue wavelength; for detection with yellow and red wavelength filters: live HeLa cells, ex 514 nm, em 519 nm and ex 561 nm, em 566 nm
Description: HeLa cells were seeded in a 96-well plate and incubated for 24 hours. The cells were treated with the indolizino[3,2-c]quinoline compounds, and incubated at 37° C. under a 5% CO2 condition for 30 minutes. After removal of the medium, the cells were washed with 1×DPBS. The washed cells were fixed with 4% formaldehyde at room temperature for 10 minutes, and washed with 1×DPBS. A cell image was screened using an Operetta HTS imaging system (PerkinElmer).
After HeLa cells were seeded to account for 70 to 80% of the area of a confocal dish (SPL life science) and overnight cultured, the indolizino[3,2-c]quinoline compounds (10 μM) prepared by mixing fresh DMEM after removal of the existing DMEM medium were dispensed, and the cells were incubated for 30 minutes to 1 hour at 37° C. Afterward, if needed, LysoTracker (50 nM) was mixed with DMEM to remove the existing medium and then dispensed to the cells, and the cells were incubated for 30 minutes at 37° C. After incubation, without washing, the cells were examined by a confocal laser microscope (Leica TCS SP8 SMD, Leica, Mannheim, Germany). However, when co-stained with a LysoTracker, the cells were washed with DPBS twice before the microscopy. […]

[1] = target: Human Serum Albumin (HSA) (Homo sapiens, UniProt P02768); assay: Protein binding by fluorescence change (FRET, Job's plot, titration, quantum yield)
Description: Using a fluorescence spectrophotometer, it was confirmed whether the indolizino[3,2-c]quinoline compound of the present invention binds to a protein. Specifically, among the indolizino[3,2-c]quinoline compounds, 13 types of compounds with high fluorescence in a Tris buffer (pH 7.5) were added to Bovine Serum Albumin (BSA) and Human Serum Albumin (HSA) to observe a fluorescence change.

[2] = Analysis of optical characteristics (absorption, fluorescence emission, quantum yield) in solvents; assay type: physicochemical; conditions: for Fluorescence Emission Intensity / Peak emission wavelength λmax em(nm) / Relative fluorescence Emission Intensitynorm: H2O at 2 μM; for Peak emission wavelength λmax em(nm): excited at the longest absorption maxima; for Relative fluorescence Emission Intensitynorm: normalized fluorescence intensity
Description: Fluorescence emission spectra were obtained at 20° C. using a JASCO FP-6500 spectrofluorometer, a 10 mM stock solution prepared by dissolving an indolizino[3,2-c]quinoline compound in DMSO was diluted in a solvent. […] Absorption spectra were recorded at room temperature using a Perkin Elmer Lamda 20 UV/VIS spectrometer. […]
Further, the compounds (excluding Entry #51-57, etc.) of Formula 1 were subjected to spectrum analyses in various solvents, and the results are shown in Tables 6 and 7, and FIGS. 5C and 5D.

[3] = test system: DNA oligomers (48 bp) tetO sequences; assay: Binding to DNA by fluorescence spectrophotometer; conditions: hybridized tetO DNA oligomers added, 1 minute incubation
Description: Using a fluorescence spectrophotometer, it was confirmed whether the indolizino[3,2-c]quinoline compound of the present invention binds to DNA. First, DNA oligomers (48 bp) used in the experiment are tetO sequences, and the base sequences thereof are as follows.
The same molarities of oligomers were mixed while being heated at 95° C. for 5 minutes and cooled to room temperature for 2 hours to hybridize, the fluorescence of each of the indolizino[3,2-c]quinoline compounds of the present invention was measured, a corresponding equivalent of DNA oligomer was added to a cuvette, and then incubated while blocking light for 1 minute to measure fluorescence again.

Human Serum Albumin (HSA), sequence (P02768 25-609): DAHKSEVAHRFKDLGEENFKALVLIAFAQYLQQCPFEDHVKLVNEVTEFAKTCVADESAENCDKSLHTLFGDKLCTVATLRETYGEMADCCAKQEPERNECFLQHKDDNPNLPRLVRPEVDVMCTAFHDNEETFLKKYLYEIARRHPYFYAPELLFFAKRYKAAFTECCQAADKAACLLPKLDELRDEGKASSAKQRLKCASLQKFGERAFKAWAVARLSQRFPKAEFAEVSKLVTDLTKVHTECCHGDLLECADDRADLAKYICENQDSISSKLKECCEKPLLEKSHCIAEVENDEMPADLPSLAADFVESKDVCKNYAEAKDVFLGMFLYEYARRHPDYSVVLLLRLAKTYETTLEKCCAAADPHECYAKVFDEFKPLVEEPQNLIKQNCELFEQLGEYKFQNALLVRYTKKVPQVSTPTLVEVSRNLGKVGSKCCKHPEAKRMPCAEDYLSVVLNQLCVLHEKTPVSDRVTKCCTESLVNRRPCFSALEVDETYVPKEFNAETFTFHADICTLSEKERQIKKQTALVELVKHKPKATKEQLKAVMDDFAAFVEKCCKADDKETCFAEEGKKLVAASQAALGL

shift of maximum emission wavelength on addition of DNA oligomer [3]: wavelength to shorter wavelength
quantum yield (Φ) ([2]; DW, standard Rhodamine 6G): 0.060
quantum yield (Φ) ([2]; EtOH, standard Coumarin 153): 0.222
Fluorescence Emission Intensity [2]: 80.5
Peak emission wavelength λmax em(nm) [2]: 478 nm
Relative fluorescence Emission Intensitynorm [2]: 0.35
SMILES: COC(=O)c1c2c3ccccc3nc(-c3cc(OC)cc(OC)c3)c2n2ccccc12 [compound 19]

shift of maximum emission wavelength on addition of DNA oligomer [3]: wavelength to longer wavelength
quantum yield (Φ) ([2]; DW, standard Rhodamine 6G): 0.006
quantum yield (Φ) ([2]; EtOH, standard Coumarin 153): 0.386
SMILES: CN(C)c1ccc(-c2nc3ccccc3c3cc4ccccn4c23)cc1 [compound 36]

shift of maximum emission wavelength on addition of DNA oligomer [3]: wavelength to longer wavelength
quantum yield (Φ) ([2]; DW, standard Rhodamine 6G): 0.001
quantum yield (Φ) ([2]; EtOH, standard Coumarin 153): 0.324
SMILES: CCN(CC)c1ccc(-c2nc3ccccc3c3cc4ccccn4c23)cc1 [compound 37]

change in fluorescence intensity on addition of DNA oligomer [3]: Increase in fluorescence intensity
quantum yield (Φ) ([2]; DW, standard Rhodamine 6G): 0.142
quantum yield (Φ) ([2]; EtOH, standard Coumarin 153): 0.624
SMILES: COc1ccc(-c2nc3ccccc3c3c(Cl)c4ccccn4c23)cc1 [compound 40]

shift of maximum emission wavelength on addition of DNA oligomer [3]: wavelength to shorter wavelength
SMILES: c1csc(-c2nc3ccccc3c3cc4ccccn4c23)c1 [compound 42]

shift of maximum emission wavelength on addition of DNA oligomer [3]: wavelength to shorter wavelength
quantum yield (Φ) ([2]; DW, standard Rhodamine 6G): 0.010
quantum yield (Φ) ([2]; EtOH, standard Coumarin 153): 0.050
SMILES: COC(=O)c1c2c3ccccc3nc(-c3cccs3)c2n2ccccc12 [compound 44]

change in fluorescence intensity on addition of DNA oligomer [3]: No change in fluorescence intensity
quantum yield (Φ) ([2]; DW, standard Rhodamine 6G): 0.033
quantum yield (Φ) ([2]; EtOH, standard Coumarin 153): 0.557
SMILES: COc1ccc(-c2nc3ccccc3c3c(-c4ccc(F)cc4)c4ccccn4c23)cc1 [compound 45]

change in fluorescence intensity on addition of DNA oligomer [3]: No change in fluorescence intensity
quantum yield (Φ) ([2]; DW, standard Rhodamine 6G): 0.039
quantum yield (Φ) ([2]; EtOH, standard Coumarin 153): 0.604
SMILES: COc1ccc(-c2nc3ccccc3c3c(-c4ccc(Cl)cc4)c4ccccn4c23)cc1 [compound 46]

quantum yield (Φ) ([2]; DW, standard Rhodamine 6G): 0.085
quantum yield (Φ) ([2]; EtOH, standard Coumarin 153): 0.195
SMILES: COc1ccc(-c2nc3ccccc3c3c(Br)c4ccccn4c23)cc1 [compound 49]

quantum yield (Φ) ([2]; DW, standard Rhodamine 6G): 0.014
quantum yield (Φ) ([2]; EtOH, standard Coumarin 153): 0.037
SMILES: COc1ccc(-c2nc3ccccc3c3c(I)c4ccccn4c23)cc1 [compound 50]

λex(nm) ([2]; Table 6): 403 nm
SMILES: CCOC(=O)c1c2c3ccccc3nc(-c3ccc(OC)cc3)c2n2ccccc12 [compound 51]

λex(nm) ([2]; Table 6): 399 nm
SMILES: Cc1cccn2c1cc1c3ccccc3nc(-c3cccs3)c12 [compound 52]

λex(nm) ([2]; Table 6): 422 nm
SMILES: Cc1cccn2c1cc1c3ccccc3nc(-c3ccc(Cl)o3)c12 [compound 53]

λex(nm) ([2]; Table 6): 413 nm
SMILES: C#Cc1c2c3ccccc3nc(-c3ccc(OC)cc3)c2n2ccccc12 [compound 55]

λex(nm) ([2]; Table 6): 450 nm and 422 nm
SMILES: COc1ccc(-c2nc3ccccc3c3cc4ccccn4c23)cc1CN1CCOCC1 [compound 56]

λex(nm) ([2]; Table 6): 401 nm
SMILES: CCOC(=O)c1c2c3ccccc3nc(-c3ccc(OC)c(CN4CCOCC4)c3)c2n2ccccc12 [compound 57]

Second part, the compound before the results:

SMILES: COc1cc(OC)cc(-c2nc3ccccc3c3cc4ccccn4c23)c1 [IQ 7, 6-(3,5-Dimethoxyphenyl)indolizino[3,2-c]quinoline]
intracellular organelles in which fluorescence is detected (HeLa cells; HeLa cells): stained intensively in the nuclear area
fluorescence change on binding to HSA [1]: fluorescence intensity became higher than the fluorescence of the material; also recorded: increasing fluorescence intensity
quantum yield (QY) when bound to HSA [1]: 0.43
emission after adding 1 equiv. of the compound to HSA ([1]; excited at 280 nm): approximately 450 nm
emission of the compound ([1]; excited at 280 nm): approximately 500 nm
FRET with HSA ([1]; excited at 280 nm, 1 equiv. of compound): fluorescence resonance energy transfer (FRET) phenomenon occurred
Kd ([1]; titration): 1890 nM

SMILES: c1ccc2c(-c3nc4ccccc4c4cc5ccccn5c34)cccc2c1 [IQ 9, 6-(naphthalen-1-yl)indolizino[3,2-c]quinoline]
fluorescence change on binding to HSA [1]: increasing fluorescence intensity
fluorescence (intensity, in words) [2]: strong fluorescence
solvent-dependent (environment-sensitive) tendency of the emission [2]: solvatochromic effect
peak emission (λmax) ([2]; aqueous solution (H2O)): 465.5 nm
peak emission (λmax) ([2]; ethanol solvent (EtOH)): 516 nm
quantum yield ([2]; in ethanol using coumarin 153 as a standard): 0.402

SMILES: c1ccc2cc(-c3nc4ccccc4c4cc5ccccn5c34)ccc2c1 [IQ 10, 6-(naphthalen-2-yl)indolizino[3,2-c]quinoline]
fluorescence change on binding to HSA [1]: increasing fluorescence intensity

SMILES: COc1ccc(-c2nc3ccccc3c3cc4c(C)cccn4c23)cc1OC [IQ 17, 6-(3,4-dimethoxyphenyl)-11-methylindolizino[3,2-c]quinoline]
intracellular molecule recognized (HeLa cells; HeLa cells): recognized DNA
intracellular organelles in which fluorescence is detected (HeLa cells; HeLa cells): stained intensively in the nuclear area
fluorescence change on binding to HSA [1]: increasing fluorescence intensity
quantum yield (QY) when bound to HSA [1]: 0.4

SMILES: COc1ccc(-c2nc3ccccc3c3c(Cl)c4ccccn4c23)cc1 [IQ 40, 12-chloro-6-(4-methoxyphenypindolizino[3,2-c]quinoline]
fluorescence change on binding to HSA [1]: increasing fluorescence intensity

SMILES: COc1ccc(-c2nc3ccccc3c3cc4ccccn4c23)cc1CN1CCOCC1 [IQ 56, 4-(5-(indolizino[3,2-c]quinolin-6-yl)-2-methoxybenzyl)morpholine]
intracellular organelles in which fluorescence is detected (HeLa cells; HeLa cells): intensively distributed in the lysosomal area
co-localization with LysoTracker (HeLa cells): co-localized with the commercially available marker LysoTracker

SMILES: CCOC(=O)c1c2c3ccccc3nc(-c3ccc(OC)c(CN4CCOCC4)c3)c2n2ccccc12 [IQ 57, ethyl 6-(4-methoxy-3-(morpholinomethyl)phenyl)indolizino[3,2-c]quinoline-12-carboxylate]
intracellular organelles in which fluorescence is detected (HeLa cells; HeLa cells): intensively distributed in the lysosomal area
co-localization with LysoTracker (HeLa cells): co-localized with the commercially available marker LysoTracker

SMILES: COc1ccc(-c2ccn3c(c2)cc2c4ccccc4nc(-c4ccc(OC)cc4)c23)cc1 [IQ-B26, 6,10-bis(4-methoxyphenyl)indolizino[3,2-c]quinoline]
detection with yellow and red wavelength filters (HeLa cells): detected

SMILES: COc1ccc(-c2nc3ccccc3c3cc4cc(-c5ccc(/C=C/C=O)cc5)ccn4c23)cc1 [IQ-B31, (E)-3-(4-(6-(4-methoxyphenyl)indolizino[3,2-c]quinolin-10-yl)phenyl)acrylaldehyde]
detection with yellow and red wavelength filters (HeLa cells): detected
λex(nm) ([2]; Table 7): 440 nm

SMILES: COc1ccc(-c2nc3ccccc3c3cc4cc(-c5ccc(N(C)C)cc5)ccn4c23)cc1 [IQ-B37, 4-(6-(4-methoxyphenyl)indolizino[3,2-c]quinolin-10-yl)-N,N-dimethylaniline]
detection with yellow and red wavelength filters (HeLa cells): detected
λex(nm) ([2]; Table 7): 432 nm

SMILES: COc1ccc(-c2nc3ccccc3c3cc4c(C)cccn4c23)cc1OC [compound 17]
shift of maximum emission wavelength on addition of DNA oligomer [3]: wavelength to longer wavelength
Maximum absorption wavelength λmax abs(nm) [2]: 391 nm
quantum yield (Φ) ([2]; DW, standard Rhodamine 6G): 0.065
quantum yield (Φ) ([2]; EtOH, standard Coumarin 153): 0.604
Fluorescence Emission Intensity [2]: 31.7
Peak emission wavelength λmax em(nm) [2]: 524.5 nm
Relative fluorescence Emission Intensitynorm [2]: 0.14

SMILES: Cc1cccn2c1cc1c3ccccc3nc(-c3ccco3)c12 [compound 18]
shift of maximum emission wavelength on addition of DNA oligomer [3]: wavelength to shorter wavelength
Maximum absorption wavelength λmax abs(nm) [2]: 400 nm
quantum yield (Φ) ([2]; DW, standard Rhodamine 6G): 0.008
quantum yield (Φ) ([2]; EtOH, standard Coumarin 153): 0.421
Fluorescence Emission Intensity [2]: 15.0
Peak emission wavelength λmax em(nm) [2]: 523.5 nm
Relative fluorescence Emission Intensitynorm [2]: 0.06
